Results from ChEMBL document CHEMBL3045266, “Lytic activity of l-menthol derivatives against the snow blight disease fungus, Micronectriella nivalis” (2003).
The source made the active and inactive calls. The calls are words filed in the database; no cut-off is given here.

What was measured:
[1] = test system: Monographella nivalis var. nivalis; assay: Lytic activity against Monographella nivalis var. nivalis MAFF 305031 assessed as hyphal lysis at 0.2 mg/ml after 48 hr by cotton blue staining; type: functional
[2] = test system: Monographella nivalis var. nivalis; assay: Lytic activity against Monographella nivalis var. nivalis MAFF 305031 assessed as hyphal lysis at 0.025 to 0.2 mg/ml after 48 hr by cotton blue staining; type: functional, organism-based
[3] = test system: Monographella nivalis var. nivalis; assay: Lytic activity against Monographella nivalis var. nivalis MAFF 305031 assessed as hyphal lysis after 48 hr by cotton blue staining; type: functional, organism-based
[4] = test system: Monographella nivalis var. nivalis; assay: Lytic activity against Monographella nivalis var. nivalis MAFF 305031 assessed as hyphal lysis at 0.05 mg/ml after 48 hr by cotton blue staining; type: functional

| SMILES | Activity [1] [%] | Activity [2] | Activity [3] | Activity [4] [%] |
| --- | --- | --- | --- | --- |
| CC(=O)O[C@H]1C[C@@H](C(C)(C)O)[C@H](OC(C)=O)C[C@@H]1C | 95.2 | Active | – | – |
| CC(=O)O[C@@H]1C[C@@](C)(O)CC[C@H]1C(C)C [(-)-(1S,3R,4S)-1-HYDROXYMENTHYL 3-MONOACETATE] | 66 | Active | – | – |
| CC(C)[C@@H]1CC[C@@H](C)C[C@H]1O [LEVOMENTHOL] | 45.7 | – | – | – |
| CC(=O)O[C@@H]1C[C@H](C)CC[C@H]1C(C)C | 51.2 | Active | – | – |
| C[C@H]1C[C@@H](O)[C@H](C(C)(C)O)C[C@@H]1O | 81.9 | – | Dose-dependent effect | 68.1 |
| CC(C)[C@@H]1CC[C@](C)(O)C[C@H]1O [(-)-(1S,3R,4S)-1-HYDROXYMENTHOL] | 63.9 | – | Dose-dependent effect | – |
| CC(C)[C@@H]1C[C@H](O)[C@@H](C)C[C@H]1O [(-)-(1S,3R,4S,6S)-6-HYDROXYMENTHOL] | 85 | – | Dose-dependent effect | 57.1 |
| CC(=O)O[C@H]1C[C@@H](C(C)C)[C@H](OC(C)=O)C[C@@H]1C | 91.5 | Active | – | – |
